Reference: ChEMBL document CHEMBL3244110, “Synthesis and biological evaluation of some 2-amino-4-aryl-3H-1,5-benzodiazepine analogues of clozapine” (J Med Chem, 1978)
Calls of active or inactive are those of the source. The rule behind the calls is not given here.

Legend:
Mus musculus [1] = experiment: Toxicity in mouse assessed as ptosis at 50 mg/kg, ip; assay type: organism-based; design: dose 50 mg/kg, route intraperitoneal; details: in vivo
Mus musculus [2] = experiment: Antipsychotic activity in mouse assessed as increase in brain dopamine turnover at 25 to 30 mg/kg, ip pretreated with 200 mg/kg, ip alpha-methyl-p-tyrosine tyrosine hydroxylase inhibitor; assay type: functional, organism-based
Mus musculus [3] = experiment: Antipsychotic activity in mouse assessed as protection against amphetamine-induced lethality at 50 mg/kg, ip treated 30 mins before amphetamine challenge; assay type: functional, organism-based; design: dose 50 mg/kg
Mus musculus [4] = experiment: Toxicity in mouse assessed as depression at 50 mg/kg, ip; assay type: organism-based; design: dose 50 mg/kg, route intraperitoneal; details: in vivo
Rattus norvegicus [5] = experiment: Antipsychotic activity in 0.2 mA footshock-induced conditioned stimulus rat assessed as decrease in avoidance response at 20 mg/kg, ip after 30 mins; assay type: functional, organism-based; design: dose 20 mg/kg
Mus musculus [6] = experiment: Antipsychotic activity in mouse assessed as protection against amphetamine-induced lethality at 5 mg/kg, ip treated 30 mins before amphetamine challenge; assay type: functional, organism-based; design: dose 5 mg/kg
[7] = target: Adenylate cyclase (Rattus norvegicus) (UniProt D4A3N4+P26770+Q04400+P26769+Q03343+P40146+Q8CFM9+P21932); experiment: Inhibition of dopamine-sensitive rat brain adenylyl cyclase activity assessed as cAMP level at 10^-4 M
Rattus norvegicus [8] = experiment: Antipsychotic activity in 0.2 mA footshock-induced conditioned stimulus rat assessed as decrease in avoidance response at 5 mg/kg, ip after 30 mins; assay type: functional, organism-based; design: dose 5 mg/kg
Mus musculus [9] = experiment: Toxicity in mouse assessed as depression at 20 mg/kg, ip; assay type: organism-based; design: dose 20 mg/kg, route intraperitoneal; details: in vivo
Adenylate cyclase = experiment: Inhibition of dopamine-sensitive rat brain adenylyl cyclase activity assessed as cAMP level
Mus musculus [10] = experiment: Toxicity in mouse assessed as depression at 5 mg/kg, ip; assay type: organism-based; design: dose 5 mg/kg, route intraperitoneal; details: in vivo
Mus musculus [11] = experiment: Toxicity in mouse assessed as tremors at 50 mg/kg, ip; assay type: organism-based; design: dose 50 mg/kg, route intraperitoneal; details: in vivo

Compound | Activity (Mus musculus [1]) | Activity (Mus musculus [2]) | Activity (Mus musculus [3]) | Activity (Mus musculus [4]) | Activity (Rattus norvegicus [5]) | Activity (Mus musculus [6]) | inhibition [7] | Activity (Rattus norvegicus [8]) | Activity (Mus musculus [9]) | IC50 (Adenylate cyclase) | Activity (Mus musculus [10]) | Activity (Mus musculus [11])
CN1CCN(C2=Nc3ccccc3N=C(c3ccccc3)C2)CC1 | Toxic | Active | inactive | Toxic | inactive | inactive | inactive | inactive | – | – | – | –
COc1ccc(C2CCN(C3=Nc4ccccc4N=C(c4ccccc4)C3)CC2)cc1 | – | inactive | inactive | – | inactive | inactive | inactive | inactive | – | – | – | –
c1ccc(C2=Nc3ccccc3N=C(N3CCC(C(c4ccccc4)c4ccccc4)CC3)C2)cc1 | Toxic | inactive | Active | – | inactive | inactive | – | inactive | – | – | – | –
Clc1ccc(C2=Nc3ccccc3N=C(N3CCC(c4ccccc4)CC3)C2)cc1 | Toxic | inactive | inactive | Toxic | inactive | inactive | – | inactive | – | – | – | –
CN1CCN(C2=Nc3ccccc3N=C(c3ccc(F)cc3)C2)CC1 | Toxic | Active | inactive | Toxic | Active | inactive | 46% | inactive | Toxic | – | – | –
CN1CCN(C2=Nc3ccccc3N=C(c3ccc(Cl)cc3)C2)CC1 | – | inactive | inactive | – | inactive | inactive | – | inactive | – | – | – | –
FC(F)(F)c1cccc(C2CCN(C3=Nc4ccccc4N=C(c4ccccc4)C3)CC2)c1 | Toxic | inactive | inactive | – | inactive | inactive | inactive | inactive | – | – | – | –
c1ccc(C2=Nc3ccccc3N=C(N3CCC(c4ccccc4)CC3)C2)cc1 | Toxic | Active | Active | – | inactive | Active | – | inactive | – | 4.5 ×10⁻⁵ M | – | –
COc1ccc(C2=Nc3ccccc3N=C(N3CCC(c4ccccc4)CC3)C2)cc1 | – | inactive | inactive | – | inactive | inactive | – | inactive | – | – | – | –
c1ccc(C2=Nc3ccccc3N=C(N3CCOCC3)C2)cc1 | – | inactive | inactive | – | inactive | inactive | – | inactive | – | – | – | –
Cc1cc2c(cc1C)N=C(N1CCC(c3ccccc3)CC1)CC(c1ccccc1)=N2 | – | inactive | inactive | – | inactive | inactive | inactive | inactive | – | – | – | –
Clc1ccc2c(c1)N=C(N1CCC(c3ccccc3)CC1)CC(c1ccccc1)=N2 | Toxic | inactive | inactive | – | inactive | inactive | inactive | inactive | – | – | – | –
O=C(CCCN1CCC(O)(c2ccc(Cl)cc2)CC1)c1ccc(F)cc1 [HALOPERIDOL] | – | Active | Active | – | – | Active | – | – | – | 2.3 µM | – | –
C1=C(c2ccccc2)CCN(C2=Nc3ccccc3N=C(c3ccccc3)C2)C1 | – | inactive | inactive | – | inactive | inactive | inactive | inactive | – | – | – | –
Cc1ccc(C2=CCN(C3=Nc4ccccc4N=C(c4ccccc4)C3)CC2)cc1 | – | Active | Active | – | Active | inactive | 27% | Active | Toxic | – | Toxic | –
FC(F)(F)c1ccc(C2CCN(C3=Nc4ccccc4N=C(c4ccccc4)C3)CC2)cc1 | – | inactive | inactive | Toxic | inactive | Active | inactive | inactive | – | – | – | –
CN1CCN(C2=Nc3cc(Cl)ccc3Nc3ccccc32)CC1 [CLOZAPINE] | – | Active | Active | – | Active | Active | – | Active | – | 1.4 ×10⁻⁷ M | – | –
Cc1ccc(C2=Nc3ccccc3N=C(N3CCC(c4ccccc4)CC3)C2)cc1 | – | inactive | inactive | – | inactive | inactive | – | inactive | – | – | – | –
Cc1cc2c(cc1C)N=C(N1CCN(C)CC1)CC(c1ccccc1)=N2 | – | Active | inactive | – | Active | inactive | inactive | inactive | Toxic | – | – | Toxic

Compound | Activity (Mus musculus [1]) | Activity (Mus musculus [2]) | Activity (Mus musculus [3]) | Activity (Mus musculus [4]) | Activity (Rattus norvegicus [5]) | Activity (Mus musculus [6]) | inhibition [7] | Activity (Rattus norvegicus [8]) | Activity (Mus musculus [9]) | IC50 (Adenylate cyclase) | Activity (Mus musculus [10]) | Activity (Mus musculus [11])
CN1CCN(C2=Nc3cc(Cl)ccc3N=C(c3ccccc3)C2)CC1 | – | inactive | inactive | – | inactive | Active | – | inactive | – | – | – | –
Cc1ccc(C2=Nc3ccccc3N=C(N3CCN(C)CC3)C2)cc1 | – | – | inactive | – | inactive | inactive | – | inactive | – | – | – | –
CN(CCO)C1=Nc2ccccc2N=C(c2ccccc2)C1 | – | inactive | inactive | – | inactive | inactive | – | inactive | – | – | – | –
Cc1cc2c(cc1C)N=C(N1CCN(C)CC1)CC(c1ccc(F)cc1)=N2 | – | – | inactive | – | inactive | inactive | – | inactive | – | – | – | –
COc1ccc(C2=Nc3ccccc3N=C(N3CCN(C)CC3)C2)cc1 | – | – | inactive | – | inactive | inactive | – | inactive | – | – | – | –
CSc1ccc2c(c1)N(CCC1CCCCN1C)c1ccccc1S2 (stereo unspecified) | – | Active | – | – | – | – | – | – | – | – | – | –
c1ccc(C2=Nc3ccccc3N=C(N3CCCC3)C2)cc1 | – | inactive | inactive | – | inactive | inactive | – | inactive | – | – | – | –
c1ccc(C2=Nc3ccccc3N=C(N3CCCCC3)C2)cc1 | – | inactive | inactive | – | inactive | inactive | – | inactive | – | – | – | –
c1ccc(C2=Nc3ccccc3N=C(N3CCC(N4CCCCC4)CC3)C2)cc1 | – | Active | inactive | – | inactive | inactive | inactive | inactive | – | – | – | –
Butaclamol | – | – | Active | – | – | Active | – | – | – | – | – | –
CN(C)CCCN1c2ccccc2Sc2ccc(Cl)cc21 | – | Active | Active | – | – | Active | – | – | – | – | – | –
Clc1ccc(C2=CCN(C3=Nc4ccccc4N=C(c4ccccc4)C3)CC2)cc1 | Toxic | Active | inactive | Toxic | inactive | inactive | inactive | inactive | – | – | – | –
OCCN1CCN(CCCN2c3ccccc3Sc3ccc(C(F)(F)F)cc32)CC1 | – | – | Active | – | – | Active | – | – | – | – | – | –
Fc1ccc(C2=Nc3ccccc3N=C(N3CCC(c4ccccc4)CC3)C2)cc1 | – | inactive | Active | – | inactive | Active | inactive | Active | – | – | Toxic | –
c1ccc(CC2CCN(C3=Nc4ccccc4N=C(c4ccccc4)C3)CC2)cc1 | Toxic | inactive | Active | – | inactive | Active | – | inactive | – | – | – | –
FC(F)(F)c1ccc(C2=CCN(C3=Nc4ccccc4N=C(c4ccccc4)C3)CC2)cc1 | – | inactive | inactive | – | inactive | inactive | inactive | inactive | – | – | – | –
CN(C)C1=Nc2ccccc2N=C(c2ccccc2)C1 | Toxic | inactive | inactive | – | inactive | inactive | – | inactive | – | – | – | –
c1ccc(C2=Nc3ccccc3N=C(N3CCN(c4ccccc4)CC3)C2)cc1 | – | inactive | inactive | – | inactive | inactive | – | inactive | – | – | – | –
